Laboratory results reported in patent publication US20240207228A1, “A COMBINATION COMPRISING A SPECIFIC HDAC6 INHIBITOR AND AT LEAST ONE CTLA4 CHECKPOINT INHIBITOR” (ITALFARMACO SPA, priority 2021, published 2024).

Key:
PD-L1 [1] = experiment: PD-L1 expression in mouse immune cells in vivo; settings: ITF3756 50 mg/Kg three times a day
PD-L1 [2] = experiment: Cytokine-induced PD-L1 expression in human monocytes stimulated in vitro; assay type: cell-based
female NOD mice = experiment: Diabetes induction in female NOD mice (glycemia); assay type: in vivo; settings: day 0-21, ITF3756 50 mg/kg os 3x/day, antibodies 500 μg (d0) + 250 μg/mouse ip, diabetes = glucose >250 mg/dL two consecutive days
Method: NOD mice spontaneously developed diabetes and they represent a widely accepted spontaneous model of Type 1 diabetes mellitus (Pearson et al., 2016, Journal of Autoimmunity 66, 76-88).
ITF3756 was synthetized by the Medicinal Chemistry Dept. of Italfarmaco SpA. ITF3756, batch 9, as powder was solubilized in DMSO and stored at −20° C.
Antibody treatment was according to Ansari (Ansari et al., 2003, The Journal of experimental medicine 1 98, 63-69)
Glycemia was evaluated in all mice for 3 weeks from day 0 (start treatment) until day 21 (end of study). Blood glucose levels were measured by glucometer One Touch® Verio. Blood samples were drawn from the tail vein by a prick with a needle. A drop of blood was inserted in a test strip and glucometer automatically calculated the glucose level. Results were shown in the display of the instrument. The instrument measures from 20 to 600 mg/dL. Results below 20 or above 600 mg/dL are visualized by the instrument as “below 20” or “above 600”.
Diabetes was defined by blood glucose reading of >250 mg/dL for two consecutive days.
Mice were monitored for 3 weeks; during this time, body weight was measured 7 times.

[3] = tested on: mouse colon carcinoma cell line CT26; experiment: Anti-tumor effect in the CT26 murine model (tumor growth inhibition from tumor nodule volume/weight); assay type: in vivo; parameters: key to Statistical significance vs Control group on day 10 / Statistical significance vs Control group on day 12 / Statistical significance vs Control group on day 14 / Statistical significance vs Control group on day 17 / Statistical significance vs Control group on day 19 / Statistical significance vs Control group on day 21 / Statistical significance vs Control group on day 24: n.s.: not significant; *: p < 0.05; **: p < 0.01; settings: for Statistical significance vs Control group on day 10 / Statistical significance vs Control group on day 12 / Statistical significance vs Control group on day 14 / Statistical significance vs Control group on day 17 / Statistical significance vs Control group on day 19 / Statistical significance vs Control group on day 21 / Statistical significance vs Control group on day 24: CT26 tumor growth
Method: The anti-tumor efficacy of ITF3756, administered in combination with anti-CTLA4 antibody, has been determined using a murine model based on the use of the mouse colon carcinoma cell line CT26. In this model, the CT26 cells are implanted subcutaneously to syngeneic mice and the efficacy is determined as tumor growth inhibition on the basis of the volume of the tumor nodule.
ITF3756 was synthetized by the Medicinal Chemistry Dept. of Italfarmaco SpA. ITF3756, batch 5, as powder was solubilized in DMSO and stored at −20° C. On each day of administration, the solution was diluted with H2O/PEG 400 1:1 to obtain a final solution of H2O/PEG 400 1:1 in DMSO 0.5% at 2.5 and 5.0 mg/mL.
The solutions were administered orally by using gavage needles for mice, in a volume of 200 μL (final doses 25 and 50 mg/Kg).
ITF3756 administration started when the tumor nodules were palpable (around day 10 from cells inoculation).
Syrian hamster IgG Mab anti-mouse CTLA4 was purchased from BioXell (cat. BE0131, clone 9H10), diluted with PBS at 1, 0.3 and 0.1 mg/mL final concentration and stored at +4° C. Each mouse was treated with 200 μL of the respective solution (final doses 10.0, 3.0 and 1.0 mg/Kg).
Anti-CTLA4 Mab administration started when the tumor nodules were palpable (around day 10 from cells inoculation). Anti-CTLA4 was administered intraperitoneally (ip) once a day on alternate days for a total of 4 treatments, followed by 7 days of wash-out, as reported in table 1. This treatment cycle continued up to the end of the study.
Female 6 weeks old BALB/c mice were purchased from Charles River Italia and maintained with food and water ad libitum, under light-dark cycle of 12 hours.
After 5 days of acclimatization, the mice were submitted to tumor cells injection.
CT26 (murine BALB/c colon carcinoma, CT26.WT ATCC CRL-2638) cells were grown in RPMI 1640 cell culture medium+10% fetal calf serum (FCS).
The cells were detached, during the exponential phase, with trypsin, washed with the culture medium without FCS and suspended at 5×10^6 cells/mL final concentration.
The cells (1×10^6 cells/mouse) were injected s.c. in the inguinal region of the right flank of the mice in a volume of 200 μL.
When the tumor nodule was palpable in at least 80% of the animals, the mice were randomized in the following experimental groups and drugs administration was started.
Body weight was measured on alternate days, starting from the first day of drug administration.
The volume of subcutaneous tumor nodules was determined on alternate days, according to the following formula (Papagiannoros A. et al. in vivo 20:129-136, 2006):
where D=major diameter of the nodule and d=minor diameter of the nodule.
The weight of the tumor nodule was determined by the tumor volume considering a tumor density of 1.05 g/mL (Jensen M. M. et al. BMC Medical Imaging 8(16), 2008).
The animals were euthanized when the tumor weight was equal to the 10% of body weight or the tumor nodules were ulcerated (humane end-points).
The statistical analysis of the drugs effect was carried out by 2-way ANOVA with Dunnett's multiple comparisons test using GraphPad Prism 8 software.

[4] = Mean level in 24 hours after the efficacious schedule in the mouse; assay type: in vivo; settings: administration schedule that had shown efficacy, used as target for projected doses
Method: The human doses for ITF3756 were predicted using a physiologically based pharmacokinetic (PBPK) model, through the use of the software GastroPlus™ (Simulation Plus, Lancaster, CA). The target Caverage for projected doses was 200 ng/mL, mean level in 24 hours found after the administration schedule that had shown efficacy in the mouse.

[5] = tested on: 4T1 triple negative breast cancer; experiment: 4T1 breast cancer model, previous experiments with single agents; assay type: in vivo, mouse; settings: each drug as single agent
Method: […] mice challenged with syngeneic tumor cell line 4T1 triple negative breast cancer are used.
4T1 tumor model is considered a poorly immunogenic tumor (Demaria et al., Clin. Cancer Res. 11, 728-734, 2005).
ITF3756 is used at the same dosage used for the treatment of CT26 colon cancer, namely 50 mg/kg (mpk) TID as single agent and in combination with anti CTLA-4 antibody. The latter is administered at 3 mpk 3 times a week on alternate days.
Tumor growth is induced after subcutaneous injection of cell line and mice are monitored for at least three weeks post-injection.

Caverage, mean level in 24 hours [4]: 200 ng/mL
SMILES: O=C(NO)c1ccc(Cn2nnnc2-c2cccs2)cc1 [ITF3756, N-hydroxy-4-((5-(thiophen-2-yl)-1H-tetrazol-1-yl)methyl)benzamide]
PD-L1 expression (PD-L1 [1]): decreased
cytokine-induced expression of PD-L1 (PD-L1 [2]): decreases
induction of diabetes (female NOD mice): did not accelerates the induction of autoimmune diabetes
Statistical significance vs Control group on day 10 ([3]; ITF3756 25 mg/Kg): n.s.
Statistical significance vs Control group on day 12 ([3]; ITF3756 25 mg/Kg): n.s.
Statistical significance vs Control group on day 14 ([3]; ITF3756 25 mg/Kg): n.s.
Statistical significance vs Control group on day 17 ([3]; ITF3756 25 mg/Kg): n.s.
Statistical significance vs Control group on day 19 ([3]; ITF3756 25 mg/Kg): n.s.
Statistical significance vs Control group on day 21 ([3]; ITF3756 25 mg/Kg): n.s.
Statistical significance vs Control group on day 24 ([3]; ITF3756 25 mg/Kg): n.s.
Statistical significance vs Control group on day 10 ([3]; ITF3756 50 mg/Kg): n.s.
Statistical significance vs Control group on day 12 ([3]; ITF3756 50 mg/Kg): n.s.
Statistical significance vs Control group on day 14 ([3]; ITF3756 50 mg/Kg): n.s.
Statistical significance vs Control group on day 17 ([3]; ITF3756 50 mg/Kg): n.s.
Statistical significance vs Control group on day 19 ([3]; ITF3756 50 mg/Kg): n.s.
Statistical significance vs Control group on day 21 ([3]; ITF3756 50 mg/Kg): * (p < 0.05)
Statistical significance vs Control group on day 24 ([3]; ITF3756 50 mg/Kg): n.s.
Statistical significance vs Control group on day 10 ([3]; ITF3756 50 mg/Kg x3): n.s.
Statistical significance vs Control group on day 12 ([3]; ITF3756 50 mg/Kg x3): n.s.
Statistical significance vs Control group on day 14 ([3]; ITF3756 50 mg/Kg x3): n.s.
Statistical significance vs Control group on day 17 ([3]; ITF3756 50 mg/Kg x3): n.s.
Statistical significance vs Control group on day 19 ([3]; ITF3756 50 mg/Kg x3): * (p < 0.05)
Statistical significance vs Control group on day 21 ([3]; ITF3756 50 mg/Kg x3): ** (p < 0.01)
Statistical significance vs Control group on day 24 ([3]; ITF3756 50 mg/Kg x3): ** (p < 0.01)
inhibition of tumor growth ([3]; ITF3756 25 mg/Kg orally once a day, day 24): 7%
tumor weight ([3]; ITF3756 25 mg/Kg orally once a day, day 24, control 1.89 g): 1.76 g
inhibition of tumor growth ([3]; ITF3756 25 mg/Kg orally once a day, entire experimental period): did not show a significant inhibition of tumor growth
inhibition of tumor growth ([3]; ITF3756 50 mg/Kg orally 3 times a day, day 24): 30%
tumor weight ([3]; ITF3756 50 mg/Kg orally 3 times a day, day 24, control 1.89 g): 1.32 g
inhibition of tumor growth ([3]; ITF3756 50 mg/Kg orally once a day, day 21): 34%
tumor weight ([3]; ITF3756 50 mg/Kg orally once a day, day 21, control 1.34 g): 0.88 g
inhibition of tumor growth ([3]; ITF3756 50 mg/Kg orally once a day, day 24): 9%
tumor weight ([3]; ITF3756 50 mg/Kg orally once a day, day 24, control 1.89 g): 1.72 g
average reduction of tumor growth [5]: approximately 40%
